This is an account of results in EP2036556A1, “Piperidone derivatives and medical uses thereof” (Heinrich-Pette-Institut, priority 2007, dated 2009).

Read-outs that look alike come from different tables or passages of the source.

For series [1], the system named is T. brucei brucei laboratory strain TC 221. Kind of series: Trypanosome assay (in vitro cytotoxicity, Alamar Blue). It counts as cell-based, Trypanosoma brucei brucei. To be noted: for EC50: Trypanosoma brucei. How it is done:
Parasite culture: Trypomastigote forms of T. brucei brucei laboratory strain TC 221 were cultured in Baltz medium according to standard conditions.^36 In vitro cytotoxicity assays: The test compounds were dissolved in DMSO or 0.1 M NaOH. A defined number of parasites (10^4 trypanosomes per mL) were exposed in test chambers of 96-well plates to various concentrations of the test substances in a final volume of 200 µl. Positive (trypanosomes in culture medium) and negative controls (test substance without trypanosomes) were run with each plate. The plates were then incubated at 37°C in an atmosphere of 5 % CO2 for a total time period of 72 h. […] The effect of test substances was quantified in ED50 values by linear interpolation^18 of three different measurements. The activity of the test substances was measured by light absorption in an MR 700 Microplate Reader at a wavelength of 550 nm with a reference wave length of 630 nm, using the Alamar Blue®.

Series [2] has as its system macrophage cell line J774.1. Nature of the series: Macrophage assay (Alamar Blue cytotoxicity). In kind it is cell-based. To be noted: Mus musculus. How it is done:
The macrophage cell line J774.1 was maintained in complete Click RPMI medium. For the experimental procedures cells were detached from the flasks with a rubber police, washed twice with PBS and suspended at 2 x 10^6 cells mL^-1 in complete Click RPMI medium. […] Following the addition of 20 µl of Alamar Blue, the plates were further incubated at similar conditions. The plates were then read 24 and 48 h later. Control experiments to examine the effect of cell density, incubation time and DMSO concentration were performed. Absorbance in the absence of compounds was set as 100 % of growth control.

A further series concerns HIV-1. Kind of series: HIV-1 infection experiments in PM1 cells, strain not specified (BaL and/or NL4/3). The following applies: strain and concentration not given. It counts as cell-based. The procedure:
(§1) HIV-1 infection experiments using the T-cell tropic (X4) strain NL4/3, the macrophage-tropic (R5) strain BaL were routinely performed using PM1 cells (virus laboratory strains and cells were obtained from the NIH AIDS Research and Reference Reagent Program). Cells were cultured in RPMI medium containing 10 % fetal calf serum (Pansystems GmbH) and antibiotics (penicillin and streptomycin). For HIV-1 infection, 5 x 10^7 cells were resuspended in 500 µl culture medium without drugs and incubated at 37 °C for 3 h with 100 ng of HIV-1 viral stocks. After infection, cells were washed twice with PBS without Ca^2+ and Mg^2+ to avoid false positive p24 antigen determination. Cells were resuspended and identical aliquots (5 x 10^5 / mL) of infected cells were further cultured in 24-well plates (triplicates) in the presence of the drugs (dissolved in DMSO) at various concentrations, or in medium with DMSO as control for the calculation of the inhibition of virus replication. Culture medium was changed and cells were splitted twice a week post-infection. Viability of the cells (as measured by Alamar Blue) and p24 antigen levels (as measured by ELISA; Innogenetics N.V.) were determined at different time points.

Series [3] deals with R5-tropic HIV-1 strain BaL. Kind of series: HIV-1 infection experiments in PM1 cells, p24 antigen ELISA, strain BaL. In kind it is cell-based. How it is done:
as §1

For the next series, the system named is P. falciparum. To be noted: cited from earlier work.
In the next series the test system is rodent malaria model. To be noted: cited from earlier work.
The next series relates to plasmodia. The following applies: after 48 h; previous study; cited from earlier work.
For series [4], the system named is X4-tropic HIV-1 strain NL4/3. Kind of series: HIV-1 infection experiments in PM1 cells, p24 antigen ELISA, strain NL4/3. It counts as cell-based. The following applies: concentration of 6 µM, compared to DMSO control cultures. How it is done: as §1
A further series has as its system MT-2 cells. In kind it is cell-based. The following applies: human, 10 days, 10 µM. The procedure:
First, the subtoxic concentration of the inhibitor was determined by vitality assays. MT-2 cells were cultured for 14 days with 10, 5, 2.5 and 1.5 µM of the inhibitor as well as DMSO as a solvent control. In regular intervals, samples for determination of the vitality of the cells were taken. Vitality was tested with the alamarBlue®-Assays.

The next series deals with HTLV-I. Nature of the series: Inhibition of HTLV-I virus production in MT-2 cells (real-time PCR of gag RNA in supernatant). It counts as cell-based. The following applies: Primate T-lymphotropic virus 1, MT2, 240 h, day 10 and 14, read-out: inhibition of virus production in relation to the solvent control. The source says: For the investigation wether the inhibition of DOHH by the compositions of the invention can influence replication of HTLV-I, the lymphoma cell line MT-2, which is latently infected by HTLV-I was used as a model system (Harada et al., 1985, Infection of HTLV-III/LAV in HTLV-I-carrying cells MT-2 and MT-4 and application in a plaque assay. Science 229, 563-566). MT-2 cells continually produce a high amount of virus particles which are secreted into the cell culture supernatant, and they grow quickly. The experimental approach is based on the comparison of the virus load of cells treated with the potential inhibitor and an untreated control. As the inhibitor was dissolved in DMSO, the same amount of this solvent was added to the control cells.
For investigating the influence of inhibition of DOOH on the replication of HTLV-I, as before, MT-2 cells were cultivated with the determined subtoxic concentrations of compound 11 as well as a solvent control. In regular intervals, cell vitality was determined and the RNA of the virus particles from the supernatant was isolated. After reverse transcription with a primer specific for the gag region of HTLV-I RNA, the cDNA was quantified by real-time PCR. For detection of the amplified DNA, a gag-specific probe was used. A plasmid comprising the HTLV-I provirus served as a standard. […]

The mark [5] stands for this setting: strain TC 221, 10^4 trypanosomes per mL, incubated 72 h, reading at 48 h, Alamar Blue, read-out: ED50 [µM] T. brucei brucei.
[6] abbreviates: J774.1 macrophages, after 48h, read-out: ED50 [µM] Macrophage after 48h.

Consider `COC(=O)C1=C(O)C(C(=O)OC)[C@H](c2ccc([N+](=O)[O-])cc2)N(Cc2ccccc2)[C@H]1c1ccc([N+](=O)[O-])cc1` (stereo partly drawn) [Compound 12, Dimethyl (2R,6S)-1-benzyl-4-hydroxy-2,6-bis(4-nitrophenyl)-1,2,3,6-tetrahydropyridine-3,5-dicarboxylate], for which the EC50 in [1] (setting [5]) was 3.01 ± 0.27 µM; in [2] (setting [6]) it was 18.4 ± 2.93 µM. For the same compound, the “inhibition of virus replication” value with HIV-1 came to 20%.
Regarding `Cl.Clc1cccc(Cl)c1CON=CC1CCN(CCCc2ccccc2)CC1` [Compound 53, 4-[(2,6-Dichloro-benzyloxyimino)-methyl]-1-(3-phenyl-propyl)-piperidinium hydrochloride], the values for the EC50 in [1] (setting [5]) and in series [2] (setting [6]) were 3.86 ± 1.95 µM and 28.4 ± 5.92 µM, respectively. Moreover, the “activity against trypanosomes (in words)” value in series [1] (statement of the discussion) is “active against trypanosomes”. Moreover, in series [3] (Human immunodeficiency virus 1, HIV-1 BaL infected PM1 cells, concentration of 10 µM, read-out: virus replication inhibited), the inhibition at 10 µM was found to be 85%.
Consider `Cc1cc(C2CCCCC2)n(O)c(=O)c1` [Ciclopiroxolamine, reference compound], for which the EC50 came out at 0.62 ± 0.22 µM in series [1] (reference substances, for comparison (title of Table 1), read-out: ED50 (T. brucei brucei)) and 4.62 ± 0.97 µM in series [2] (J774.1, reference substance, for comparison, 48 h, read-out: ED50 (macrophages, 48 h)). Besides, the IC50 in the series on P. falciparum (chloroquine sensitive (CQS) NF54 P. falciparum strain, read-out: IC50 in vitro proliferation) was 8.2 µM. Besides, the efficacy in vivo result with rodent malaria model (rodent malaria model) is listed as “ineffective in vivo”.
As for `C=CCN1[C@@H](c2ccccn2)C(C(=O)OC)=C(O)C[C@H]1c1ccccn1` [Compound 24, Methyl (2'R,6'S)-1'-allyl-4'-hydroxy-1',2',5',6'-tetrahydro-2,2';6',2''-terpyridine-3'-carboxylate], the EC50 was 1.08 ± 0.48 µM in series [1] (setting [5]) and 35 µM in [2] (setting [6]). In addition, the “activity against the plasmodia” value in the series on plasmodia was “high activity”.
Take `CCOC(=O)C1=C(O)C(C(=O)OCC)[C@H](c2ccc([N+](=O)[O-])cc2)N(Cc2ccccc2)[C@H]1c1ccc([N+](=O)[O-])cc1` (stereo partly drawn) [Compound 13, Diethyl (2R,6S)-1-benzyl-4-hydroxy-2,6-bis(4-nitrophenyl)-1,2,3,6-tetrahydropyridine-3,5-dicarboxylate]: the EC50 in series [1] (setting [5]) was 2.72 ± 0.51 µM; in [2] (setting [6]), over 100 µM. For the same compound, the “inhibition of virus replication” value in the series on HIV-1 is 20%.
As for `C=CCN1[C@@H](c2ccc([N+](=O)[O-])cc2)C(C(=O)OCC)=C(O)C(C(=O)OCC)[C@@H]1c1ccc([N+](=O)[O-])cc1` (stereo partly drawn) [Compound 11, Diethyl (2R,6S)-1-allyl-4-hydroxy-2,6-bis(4-nitrophenyl)-1,2,3,6-tetrahydropyridine-3,5-dicarboxylate], the results for the EC50 in series [1] (setting [5]) and in series [2] (setting [6]) were 3.06 ± 0.55 µM and over 100 µM, respectively. Further, in series [3] (PM1 cells, concentration of 5 µM, compared to DMSO control cultures), the “inhibition of replication of HIV-1 BaL” value is listed as “completely inhibit”. Further, in series [4], the “inhibition of replication of HIV-1 NL4/3” value is “completely inhibit”. In addition, in the series on MT-2 cells, the “death of the cells” value was 90%. Moreover, the inhibition at 2.5 µM with HTLV-I (2.5 µM) is over 90%. For the same compound, the inhibition at 5 µM in the series with HTLV-I (5 µM) is over 80%.
For the compound `COC(=O)C1=C(O)C[C@@H](c2ccccn2)N(Cc2ccc(Cl)cc2)[C@H]1c1ccccn1` [Compound 21, Methyl (2'R,6'S)-1'-(4-chlorobenzyl)-4'-hydroxy-1',2',5',6'-tetrahydro-2,2';6',2''-terpyridine-3'-carboxylate], the figures for the EC50 in [1] (setting [5]) and in series [2] (setting [6]) were 0.32 ± 0.09 µM and 32.8 ± 0.49 µM, respectively. The “activity against the plasmodia” value with plasmodia is on record as “high activity”.
In the case of `N[C@@H](Cn1ccc(=O)c(O)c1)C(=O)O` [mimosine, L-mimosine], the IC50 with P. falciparum (chloroquine resistant (CQR) strain, read-out: IC50 antiplasmodial effect) is 39 µM; in the series on P. falciparum (chloroquine susceptible (CQS) strain, read-out: IC50 antiplasmodial effect) it was 32 µM. In the series with rodent malaria model (in vivo), the toxicity in vivo result is “toxic”.
